The values below come from patent US20240050428A1 (Cullgen (Shanghai), Inc., priority 2020, published 2024).

Where two headings read alike, the source gives them in different places.

Assay [1] concerns MV4;11 cells. As to the kind of experiment: Cell viability assay (CellTiter-Glo) in MV4;11 cells, alone or with gilteritinib. The class given is cell-based. The following applies: Homo sapiens, MV4;11 cells, three days, CellTiter-Glo, read-out: MV4. (In general: ATP-based viability assays read luminescence as a measure of living cells.)
Assay [2] deals with MOLM-13 cells. As to the kind of experiment: Cell viability assay (CellTiter-Glo) in MOLM-13 cells, alone or with gilteritinib. The class given is cell-based. The following applies: Homo sapiens, MOLM-13 cells, three days, CellTiter-Glo.
Where [3] appears, read: MV4-11, 72 h, compound alone (without gilteritinib), 11 IC50.
The mark [4] stands for this setting: MV4-11, 72 h, with gilteritinib 10 nM, 11 IC50 gilteritinib.
Where [5] appears, read: MOLM-13, 72 h, compound alone (without gilteritinib), read-out: MOLM-13 IC50.
[6] abbreviates: MOLM-13, 72 h, with gilteritinib 20 nM, read-out: MOLM-13 IC50 gilteritinib.
Setting [7] is: 72 h, compound alone (without gilteritinib), 11 IC50.
Setting [8] is: 72 h, with gilteritinib 10 nM, 11 IC50 gilteritinib.
Where [9] appears, read: 72 h, compound alone (without gilteritinib), read-out: MOLM-13 IC50.
Where [10] appears, read: 72 h, with gilteritinib 20 nM, read-out: MOLM-13 IC50 gilteritinib.

Take `O=C1CCC(N2C(=O)c3ccc(NCCCN4CCCC(n5cc(-c6cnc7ccccc7n6)cn5)C4)cc3C2=O)C(=O)N1` (stereo not shown) [GS-347, 2-(2,6-Dioxopiperidin-3-yl)-5-((3-(3-(4-(quinoxalin-2-yl)-1H-pyrazol-1-yl)piperidin-1-yl)propyl)amino)isoindoline-1,3-dione]: the IC50 was greater than 1000 nM in assay [1] (setting [3]), greater than 1000 nM in assay [1] (setting [4]), greater than 1000 nM in assay [2] (setting [5]) and 10 to 100 nM in assay [2] (setting [6]).

Take `O=C1CCC(N2C(=O)c3ccc(NCCCCCC(=O)N4CCC(F)(c5ccccc5)CC4)cc3C2=O)C(=O)N1` (stereo not shown) [GS-348, 2-(2,6-Dioxopiperidin-3-yl)-5-((6-(4-fluoro-4-phenylpiperidin-1-yl)-6-oxohexyl)amino)isoindoline-1,3-dione]: the IC50 in assay [1] (setting [3]) was 10 to 100 nM; in assay [1] (setting [4]), less than 10 nM; in assay [2] (setting [5]), 10 to 100 nM; in assay [2] (setting [6]), less than 10 nM.

For the molecule `O=C1CCC(N2C(=O)c3ccc(CNC(=O)NC4CCCC(n5cc(-c6cnc7ccccc7n6)cn5)C4)cc3C2=O)C(=O)N1` (stereo not shown) [GS-349, 1-((2-(2,6-Dioxopiperidin-3-yl)-1,3-dioxoisoindolin-5-yl)methyl)-3-(3-(4-(quinoxalin-2-yl)-1H-pyrazol-1-yl)cyclohexyl)urea], the IC50 in assay [1] (setting [3]) lay in the range of 10 to 100 nM; in assay [1] (setting [4]), 10 to 100 nM; in assay [2] (setting [5]) it was 100 to 1000 nM; in assay [2] (setting [6]), 10 to 100 nM.

In the case of `O=C1CCC(N2C(=O)c3ccc(NCCCN4CCCC(N5CCN(c6ccccn6)CC5)C4)cc3C2=O)C(=O)N1` (stereo not shown) [GS-350, 2-(2,6-Dioxopiperidin-3-yl)-5-((3-(3-(4-(pyridin-2-yl)piperazin-1-yl)piperidin-1-yl)propyl)amino)isoindoline-1,3-dione], the IC50 was greater than 1000 nM in assay [1] (setting [3]), greater than 1000 nM in assay [1] (setting [4]), greater than 1000 nM in assay [2] (setting [5]) and less than 10 nM in assay [2] (setting [6]).

Take `O=C1CCC(N2C(=O)c3ccc(NCCNc4cccc(N5CCC(n6cc(-c7cnc8ccccc8n7)cn6)CC5)c4)cc3C2=O)C(=O)N1` (stereo not shown) [GS-351, 2-(2,6-Dioxopiperidin-3-yl)-5-((2-((3-(4-(4-(quinoxalin-2-yl)-1H-pyrazol-1-yl)piperidin-1-yl)phenyl)amino)ethyl)amino)isoindoline-1,3-dione]: the IC50 is 10 to 100 nM in assay [1] (setting [7]), 10 to 100 nM in assay [1] (setting [8]), 10 to 100 nM in assay [2] (setting [9]) and less than 10 nM in assay [2] (setting [10]).

Regarding `O=C1CCC(N2C(=O)c3ccc(CCCCCCCn4cc(-c5cnc6ccccc6n5)cn4)cc3C2=O)C(=O)N1` (stereo not shown) [GS-352, 2-(2,6-Dioxopiperidin-3-yl)-5-(7-(4-(quinoxalin-2-yl)-1H-pyrazol-1-yl)heptyl)isoindoline-1,3-dione], the IC50 in assay [1] (setting [3]) was 100 to 1000 nM; in assay [1] (setting [4]) it was 100 to 1000 nM; in assay [2] (setting [5]) it was greater than 1000 nM; in assay [2] (setting [6]), 100 to 1000 nM.

For the molecule `O=C1CCC(N2C(=O)c3ccc(NCCNc4cccc(-n5cc(-c6cnc7ccccc7n6)cn5)c4)cc3C2=O)C(=O)N1` (stereo not shown) [GS-353, 2-(2,6-Dioxopiperidin-3-yl)-5-((2-((3-(4-(quinoxalin-2-yl)-1H-pyrazol-1-yl)phenyl)amino)ethyl)amino)isoindoline-1,3-dione], the IC50 was 100 to 1000 nM in assay [1] (setting [7]), 10 to 100 nM in assay [1] (setting [8]), greater than 1000 nM in assay [2] (setting [9]) and 10 to 100 nM in assay [2] (setting [10]).

As to `O=C1CCC(N2C(=O)c3ccc(OCCCCCCn4cc(-c5cnc6ccccc6n5)cn4)cc3C2=O)C(=O)N1` (stereo not shown) [GS-354, 2-(2,6-Dioxopiperidin-3-yl)-5-((6-(4-(quinoxalin-2-yl)-1H-pyrazol-1-yl)hexyl)oxy)isoindoline-1,3-dione], the IC50 in assay [1] (setting [3]), in assay [1] (setting [4]), in assay [2] (setting [5]) and in assay [2] (setting [6]) was greater than 1000 nM in each case.

Turning to `O=C1CCC(N2C(=O)c3ccc(NCCCn4cc(-c5cnc6ccccc6n5)cn4)cc3C2=O)C(=O)N1` (stereo not shown) [GS-355, 2-(2,6-Dioxopiperidin-3-yl)-5-((3-(4-(quinoxalin-2-yl)-1H-pyrazol-1-yl)propyl)amino)isoindoline-1,3-dione], the IC50 in assay [1] (setting [3]) is greater than 1000 nM; in assay [1] (setting [4]), 10 to 100 nM; in assay [2] (setting [5]), greater than 1000 nM; in assay [2] (setting [6]) it was 100 to 1000 nM.

As for `O=C1CCC(N2C(=O)c3ccc(NCCCCCn4cc(-c5cnc6ccccc6n5)cn4)cc3C2=O)C(=O)N1` (stereo not shown) [GS-356, 2-(2,6-Dioxopiperidin-3-yl)-5-((5-(4-(quinoxalin-2-yl)-1H-pyrazol-1-yl)pentyl)amino)isoindoline-1,3-dione], the IC50 in assay [1] (setting [3]) is 100 to 1000 nM; in assay [1] (setting [4]) it was 100 to 1000 nM; in assay [2] (setting [5]) it was greater than 1000 nM; in assay [2] (setting [6]), 100 to 1000 nM.

In the case of `O=C1CCC(N2C(=O)c3ccc(NCCNc4cccc(-n5cc(-c6cnc7cccc(Br)c7n6)cn5)c4)cc3C2=O)C(=O)N1` (stereo not shown) [GS-357, 5-((2-((3-(4-(8-Bromoquinoxalin-2-yl)-1H-pyrazol-1-yl)phenyl)amino)ethyl)amino)-2-(2,6-dioxopiperidin-3-yl)isoindoline-1,3-dione], the IC50 in assay [1] (setting [7]), in assay [1] (setting [8]), in assay [2] (setting [9]) and in assay [2] (setting [10]) was 10 to 100 nM throughout.

For the molecule `O=C1CCC(N2C(=O)c3ccc(C4CCN(CCCn5cc(-c6cnc7ccccc7n6)cn5)CC4)cc3C2=O)C(=O)N1` (stereo not shown) [GS-358, 2-(2,6-Dioxopiperidin-3-yl)-5-(1-(3-(4-(quinoxalin-2-yl)-1H-pyrazol-1-yl)propyl)piperidin-4-yl)isoindoline-1,3-dione], the IC50 in assay [1] (setting [7]), in assay [1] (setting [8]), in assay [2] (setting [9]) and in assay [2] (setting [10]) was greater than 1000 nM throughout.

Take `O=C(CN1CCCC(N2CCN(c3ccccn3)CC2)C1)NCc1ccc2c(c1)C(=O)N(C1CCC(=O)NC1=O)C2=O` (stereo not shown) [GS-359, N-((2-(2,6-Dioxopiperidin-3-yl)-1,3-dioxoisoindolin-5-yl)methyl)-2-(3-(4-(pyridin-2-yl)piperazin-1-yl)piperidin-1-yl)acetamide]: the IC50 in assay [1] (setting [3]), in assay [1] (setting [4]), in assay [2] (setting [5]) and in assay [2] (setting [6]) was greater than 1000 nM throughout.

Turning to `O=C1CCC(N2C(=O)c3ccc(NCCCCn4cc(-c5cnc6ccccc6n5)cn4)cc3C2=O)C(=O)N1` (stereo not shown) [GS-360, 2-(2,6-Dioxopiperidin-3-yl)-5-((4-(4-(quinoxalin-2-yl)-1H-pyrazol-1-yl)butyl)amino)isoindoline-1,3-dione], the IC50 in assay [1] (setting [3]) was 100 to 1000 nM; in assay [1] (setting [4]), 100 to 1000 nM; in assay [2] (setting [5]) it was greater than 1000 nM; in assay [2] (setting [6]), 10 to 100 nM.

In the case of `O=C1CCC(N2Cc3cc(NCCCCCCn4cc(-c5cnc6ccccc6n5)cn4)ccc3C2=O)C(=O)N1` (stereo not shown) [GS-361, 3-(1-Oxo-5-((6-(4-(quinoxalin-2-yl)-1H-pyrazol-1-yl)hexyl)amino)isoindolin-2-yl)piperidine-2,6-dione], the IC50 in assay [1] (setting [3]) is 100 to 1000 nM; in assay [1] (setting [4]), 10 to 100 nM; in assay [2] (setting [5]) it was greater than 1000 nM; in assay [2] (setting [6]), 10 to 100 nM.

In the case of `O=C1CCC(N2C(=O)c3ccc(NCCNc4cccc(N5CCC(n6cc(-c7cnc8cccc(Br)c8n7)cn6)CC5)c4)cc3C2=O)C(=O)N1` (stereo not shown) [GS-362, 5-((2-((3-(4-(4-(8-Bromoquinoxalin-2-yl)-1H-pyrazol-1-yl)piperidin-1-yl)phenyl)amino)ethyl)amino)-2-(2,6-dioxopiperidin-3-yl)isoindoline-1,3-dione], the IC50 in assay [1] (setting [7]), in assay [1] (setting [8]), in assay [2] (setting [9]) and in assay [2] (setting [10]) was less than 10 nM each time.
